Assay results taken from ChEMBL document CHEMBL1201862, “PubChem BioAssay data set” (2004).
Active and inactive are the calls of the source.

Legend:
[1] = target: Induced myeloid leukemia cell differentiation protein Mcl-1 (Homo sapiens, UniProt Q07820); assay type: functional
[2] = target: T1, Probable nicotinate-nucleotide adenylyltransferase (Staphylococcus aureus (strain N315), UniProt P65502); assay type: functional, Staphylococcus aureus subsp. aureus N315; conditions: read-out: IC50_Mean;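 as to IC50 Mean: confirmatory dose-response retesting of NadD inhibitor hits first found in an ultra-high-throughput screen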
T1 sequence (P65502 whole entry): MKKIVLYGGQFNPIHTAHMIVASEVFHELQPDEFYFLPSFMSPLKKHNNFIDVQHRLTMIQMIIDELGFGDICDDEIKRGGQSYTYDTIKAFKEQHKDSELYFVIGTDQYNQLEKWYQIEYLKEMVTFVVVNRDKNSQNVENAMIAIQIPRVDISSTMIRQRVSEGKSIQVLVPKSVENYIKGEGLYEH

[3] = target: T1, Probable nicotinate-nucleotide adenylyltransferase; assay type: functional, Staphylococcus aureus subsp. aureus N315
[4] = target: Tyrosine-protein phosphatase non-receptor type 11 (Homo sapiens, UniProt Q06124); assay: SHP2 phosphatase inhibition, dose response, selectivity assay for STEP inhibitor project, biochemical (AID 602367); assay type: functional; conditions: read-out: IC50_Mean
Sequence of Tyrosine-protein phosphatase non-receptor type 11 (Q06124 whole entry): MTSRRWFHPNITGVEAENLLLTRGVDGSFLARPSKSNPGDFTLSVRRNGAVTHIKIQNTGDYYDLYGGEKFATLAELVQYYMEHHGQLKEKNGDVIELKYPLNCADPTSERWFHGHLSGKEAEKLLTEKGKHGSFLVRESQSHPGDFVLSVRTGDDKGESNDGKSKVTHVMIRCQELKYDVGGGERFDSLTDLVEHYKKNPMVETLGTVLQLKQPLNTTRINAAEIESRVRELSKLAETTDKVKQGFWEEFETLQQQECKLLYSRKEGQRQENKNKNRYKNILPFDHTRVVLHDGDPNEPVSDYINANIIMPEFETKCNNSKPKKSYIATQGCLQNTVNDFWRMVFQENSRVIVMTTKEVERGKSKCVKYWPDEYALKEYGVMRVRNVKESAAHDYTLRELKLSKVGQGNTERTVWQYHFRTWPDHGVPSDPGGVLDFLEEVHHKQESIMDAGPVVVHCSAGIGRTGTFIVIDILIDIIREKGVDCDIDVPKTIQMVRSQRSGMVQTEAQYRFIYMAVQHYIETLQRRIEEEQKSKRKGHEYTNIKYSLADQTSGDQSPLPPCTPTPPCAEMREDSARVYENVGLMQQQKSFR

[5] = target: Tyrosine-protein phosphatase non-receptor type 5 (Homo sapiens, UniProt P54829); assay: STEP phosphatase inhibitors, confirmation, biochemical, fluorescence intensity, uHTS hits (AID 602372); assay type: functional; conditions: read-out: IC50_Mean
Sequence of Tyrosine-protein phosphatase non-receptor type 5 (P54829 whole entry): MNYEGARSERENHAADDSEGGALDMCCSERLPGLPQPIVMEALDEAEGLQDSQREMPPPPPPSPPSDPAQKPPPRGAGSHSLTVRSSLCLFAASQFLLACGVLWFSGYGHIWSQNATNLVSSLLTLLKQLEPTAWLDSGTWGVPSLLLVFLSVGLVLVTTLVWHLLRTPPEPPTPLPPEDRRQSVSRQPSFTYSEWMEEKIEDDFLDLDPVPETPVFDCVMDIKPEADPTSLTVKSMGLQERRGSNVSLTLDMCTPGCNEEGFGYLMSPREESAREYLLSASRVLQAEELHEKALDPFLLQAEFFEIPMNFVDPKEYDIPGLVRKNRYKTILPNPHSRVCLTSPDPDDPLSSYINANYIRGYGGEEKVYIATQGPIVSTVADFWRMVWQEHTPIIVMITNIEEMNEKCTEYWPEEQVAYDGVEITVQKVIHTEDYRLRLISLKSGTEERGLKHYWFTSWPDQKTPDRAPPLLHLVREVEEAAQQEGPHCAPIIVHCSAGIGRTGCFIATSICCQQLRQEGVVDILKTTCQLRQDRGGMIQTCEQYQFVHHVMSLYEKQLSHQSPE

[6] = target: Dual specificity protein phosphatase 3 (Homo sapiens, UniProt P51452); assay: VHR phosphatase inhibition, dose response, selectivity assay for STEP inhibitor project, biochemical (AID 602374); assay type: functional; conditions: read-out: IC50_Mean
Sequence of Dual specificity protein phosphatase 3 (P51452 whole entry): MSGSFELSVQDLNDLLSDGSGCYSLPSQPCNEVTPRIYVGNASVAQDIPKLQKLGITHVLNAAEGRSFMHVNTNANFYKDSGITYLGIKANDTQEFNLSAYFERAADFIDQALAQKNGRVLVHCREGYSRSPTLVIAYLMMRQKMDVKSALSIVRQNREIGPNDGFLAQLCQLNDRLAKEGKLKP

[7] = AlphaScreen signal interference compounds, dose response, artefact control for ARNT-TACC3 interaction inhibitor project, biochemical, luminescence, cherry-pick (AID 651705); assay type: functional;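 also: AlphaScreen bead proximity signal that flags compounds interfering with the detection technology; potency reflects signal decrease which marks the compound as an assay artifact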
Escherichia coli = assay: microbe, parasite or virus in culture
Cytochrome P450 3A4 = Cytochrome P450 3A4 (Homo sapiens, UniProt P08684);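 also: CYP3A4 tested as one member of a cytochrome P450 panel screen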
[8] = target: T2, Low molecular weight phosphotyrosine protein phosphatase (Homo sapiens, UniProt P24666); assay type: functional; conditions: read-out: IC50_Mean
T2 sequence (P24666 whole entry): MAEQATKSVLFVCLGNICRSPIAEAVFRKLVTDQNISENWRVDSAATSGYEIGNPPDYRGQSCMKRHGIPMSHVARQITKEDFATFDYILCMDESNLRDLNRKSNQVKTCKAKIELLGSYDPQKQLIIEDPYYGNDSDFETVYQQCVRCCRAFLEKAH

[9] = target: T2, Low molecular weight phosphotyrosine protein phosphatase; assay type: functional; conditions: read-out: IC50_Mean; remark: listed apart in the source
[10] = target: Adenosylmethionine-8-amino-7-oxononanoate aminotransferase (Mycobacterium tuberculosis, UniProt P9WQ81); assay: Mycobacterium tuberculosis BioA enzyme inhibitor Measured in Biochemical System Using Plate Reader - 2163-02_Inhibitor_Dose_CherryPick_Activity.; assay type: functional, Mycobacterium tuberculosis UT205
Sequence of Adenosylmethionine-8-amino-7-oxononanoate aminotransferase (P9WQ81 whole entry): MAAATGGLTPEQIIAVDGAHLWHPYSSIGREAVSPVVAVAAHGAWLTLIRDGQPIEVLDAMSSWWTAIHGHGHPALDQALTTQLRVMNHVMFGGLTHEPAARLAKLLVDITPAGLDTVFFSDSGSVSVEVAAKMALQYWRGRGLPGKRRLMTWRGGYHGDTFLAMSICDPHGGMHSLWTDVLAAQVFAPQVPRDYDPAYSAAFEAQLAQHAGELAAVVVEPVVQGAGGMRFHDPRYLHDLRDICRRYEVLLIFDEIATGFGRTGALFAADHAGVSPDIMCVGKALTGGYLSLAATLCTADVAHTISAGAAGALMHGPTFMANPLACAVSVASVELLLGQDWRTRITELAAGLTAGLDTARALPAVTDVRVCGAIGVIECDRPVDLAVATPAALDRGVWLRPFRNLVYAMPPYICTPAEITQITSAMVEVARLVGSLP

Protein RecA = target: T3, Protein RecA (Mycobacterium tuberculosis, UniProt P9WHJ3); assay: Fluorescence Cell-Free Homogeneous Dose Retest to Identify Inhibitors of RecA-Intein Splicing Activity. [Related pubchem assays (depositor defined):AID2097, AID2223, AID489010, AID492950]; assay type: functional
T3 sequence (P9WHJ3 whole entry): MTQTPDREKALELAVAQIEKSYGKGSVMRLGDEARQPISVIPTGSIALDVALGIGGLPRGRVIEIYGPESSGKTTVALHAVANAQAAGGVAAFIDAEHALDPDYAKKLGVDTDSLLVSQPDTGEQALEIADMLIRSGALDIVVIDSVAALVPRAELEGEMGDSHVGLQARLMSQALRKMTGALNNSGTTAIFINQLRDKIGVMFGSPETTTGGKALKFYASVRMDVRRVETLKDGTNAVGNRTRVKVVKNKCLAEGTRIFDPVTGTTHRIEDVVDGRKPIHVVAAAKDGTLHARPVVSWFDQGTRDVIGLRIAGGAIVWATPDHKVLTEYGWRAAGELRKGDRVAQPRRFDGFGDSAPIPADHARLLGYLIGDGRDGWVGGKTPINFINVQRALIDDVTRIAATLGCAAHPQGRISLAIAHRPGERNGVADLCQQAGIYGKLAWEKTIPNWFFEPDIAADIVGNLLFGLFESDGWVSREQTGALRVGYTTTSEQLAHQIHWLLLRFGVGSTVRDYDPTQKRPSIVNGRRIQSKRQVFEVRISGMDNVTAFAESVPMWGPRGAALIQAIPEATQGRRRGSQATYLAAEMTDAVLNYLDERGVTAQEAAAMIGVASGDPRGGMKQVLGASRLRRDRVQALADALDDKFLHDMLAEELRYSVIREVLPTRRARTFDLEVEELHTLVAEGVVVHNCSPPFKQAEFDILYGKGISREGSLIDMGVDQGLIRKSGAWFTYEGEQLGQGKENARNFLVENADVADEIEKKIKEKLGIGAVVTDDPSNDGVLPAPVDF

[11] = Shn3 3'UTR reporter inhibitors, dose response, cell-based, Clone20 osteoblasts, firefly luciferase, cherry-picked (AID 624132); assay type: functional;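 also: firefly luciferase luminescence from reporter carrying the Shn3 3'UTR in osteoblasts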
Vero = Vero cell cytotoxicity, cytotoxicity control for flavivirus capping enzyme inhibitors (AID 588742); assay type: functional; conditions: Chlorocebus sabaeus
[12] = target: Hepatocyte nuclear factor 4-alpha (Homo sapiens, UniProt P41235); assay type: functional, cell-based;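 also: biochemical luminescence-based dose-response counterscreen measuring inhibition of HNF4 dimerization, run alongside a screen for blockers of ABHD5–perilipin-5 interaction; split luciferase complementation of HNF4 fusion proteins in cell lysate measuring dimerization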
[13] = target: T4, Replicative DNA helicase DnaB (Mycobacterium tuberculosis, UniProt P9WMR3); assay: DnaB intein splicing inhibitors, dose response, biochemical, cell-free fluorescence (AID 449749); assay type: functional
T4 sequence (P9WMR3 whole entry): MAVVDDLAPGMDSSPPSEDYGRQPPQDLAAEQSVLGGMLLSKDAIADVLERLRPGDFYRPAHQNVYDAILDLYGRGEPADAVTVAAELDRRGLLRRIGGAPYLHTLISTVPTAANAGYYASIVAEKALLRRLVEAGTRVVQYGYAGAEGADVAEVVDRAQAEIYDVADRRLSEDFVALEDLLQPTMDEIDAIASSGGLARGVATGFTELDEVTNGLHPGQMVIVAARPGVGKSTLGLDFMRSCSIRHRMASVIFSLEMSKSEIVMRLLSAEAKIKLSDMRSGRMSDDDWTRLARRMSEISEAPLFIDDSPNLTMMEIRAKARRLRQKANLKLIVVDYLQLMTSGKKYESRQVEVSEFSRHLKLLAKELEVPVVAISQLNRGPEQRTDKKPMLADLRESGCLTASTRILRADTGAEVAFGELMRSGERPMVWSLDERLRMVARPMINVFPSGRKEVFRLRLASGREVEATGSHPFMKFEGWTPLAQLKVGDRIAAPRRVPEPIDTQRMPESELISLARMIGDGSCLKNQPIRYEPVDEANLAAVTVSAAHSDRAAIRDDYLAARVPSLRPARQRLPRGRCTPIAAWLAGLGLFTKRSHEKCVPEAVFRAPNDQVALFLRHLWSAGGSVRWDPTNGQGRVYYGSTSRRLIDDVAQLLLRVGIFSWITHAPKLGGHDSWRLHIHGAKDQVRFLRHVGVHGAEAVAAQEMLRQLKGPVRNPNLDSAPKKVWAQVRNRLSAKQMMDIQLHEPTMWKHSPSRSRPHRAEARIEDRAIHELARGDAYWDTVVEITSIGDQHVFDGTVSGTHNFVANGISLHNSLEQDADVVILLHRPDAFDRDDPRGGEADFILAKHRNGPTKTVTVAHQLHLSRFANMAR

Genome polyprotein = Genome polyprotein (dengue virus type 2, UniProt P29990); assay: Dengue-2 NS5 methyltransferase inhibitors, primary screen, biochemical, confirmation dose response (AID 588689); assay type: functional
Sequence of Genome polyprotein (P29990 2492-3391 limits assumed): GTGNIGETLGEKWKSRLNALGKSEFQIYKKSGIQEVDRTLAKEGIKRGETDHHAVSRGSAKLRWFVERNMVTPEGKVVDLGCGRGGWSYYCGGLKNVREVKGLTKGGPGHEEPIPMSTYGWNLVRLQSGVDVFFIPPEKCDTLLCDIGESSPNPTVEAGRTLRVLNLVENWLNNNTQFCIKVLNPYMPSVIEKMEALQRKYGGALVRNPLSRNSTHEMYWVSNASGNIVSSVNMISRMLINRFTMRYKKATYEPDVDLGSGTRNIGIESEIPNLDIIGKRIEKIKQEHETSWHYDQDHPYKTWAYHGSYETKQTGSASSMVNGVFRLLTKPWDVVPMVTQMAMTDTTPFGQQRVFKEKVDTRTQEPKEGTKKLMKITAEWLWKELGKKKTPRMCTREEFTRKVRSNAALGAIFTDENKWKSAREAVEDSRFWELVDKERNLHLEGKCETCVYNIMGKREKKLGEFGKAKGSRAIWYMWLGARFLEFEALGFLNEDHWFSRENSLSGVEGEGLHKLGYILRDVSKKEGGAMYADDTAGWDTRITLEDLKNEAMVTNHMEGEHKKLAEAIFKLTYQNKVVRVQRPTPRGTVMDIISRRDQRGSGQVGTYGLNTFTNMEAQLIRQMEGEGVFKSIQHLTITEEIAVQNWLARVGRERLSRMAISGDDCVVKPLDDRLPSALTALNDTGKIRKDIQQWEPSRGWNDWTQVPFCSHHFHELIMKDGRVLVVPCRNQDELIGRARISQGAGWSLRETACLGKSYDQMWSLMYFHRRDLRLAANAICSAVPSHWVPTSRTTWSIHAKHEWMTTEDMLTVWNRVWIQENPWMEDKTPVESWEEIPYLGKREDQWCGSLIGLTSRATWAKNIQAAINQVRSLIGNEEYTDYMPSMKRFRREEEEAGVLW

[14] = HepG2 cell cytotoxicity, dose response, cytotoxicity control for Shn3 inhibitor project, CellTiter-Glo, cherry-picked (AID 624134); assay type: functional, cell-based
[15] = control 3'UTR Renilla luciferase suppression, dose response, counter-screen for Shn3 inhibitor project, cell-based, Clone20-Shn3RL, cherry-picked (AID 624133); assay type: functional
Steroidogenic factor 1 = Steroidogenic factor 1 (Homo sapiens, UniProt Q13285); assay: Counterscreen for inverse agonists of the liver receptor homolog-1 (LRH-1; NR5A2): Luminescence-based cell-based high throughput dose response assay to identify inverse agonists of the Steroidogenic Factor 1 Nuclear Receptor (SF1; NR5A1).; assay type: functional
Sequence of Steroidogenic factor 1 (Q13285 whole entry): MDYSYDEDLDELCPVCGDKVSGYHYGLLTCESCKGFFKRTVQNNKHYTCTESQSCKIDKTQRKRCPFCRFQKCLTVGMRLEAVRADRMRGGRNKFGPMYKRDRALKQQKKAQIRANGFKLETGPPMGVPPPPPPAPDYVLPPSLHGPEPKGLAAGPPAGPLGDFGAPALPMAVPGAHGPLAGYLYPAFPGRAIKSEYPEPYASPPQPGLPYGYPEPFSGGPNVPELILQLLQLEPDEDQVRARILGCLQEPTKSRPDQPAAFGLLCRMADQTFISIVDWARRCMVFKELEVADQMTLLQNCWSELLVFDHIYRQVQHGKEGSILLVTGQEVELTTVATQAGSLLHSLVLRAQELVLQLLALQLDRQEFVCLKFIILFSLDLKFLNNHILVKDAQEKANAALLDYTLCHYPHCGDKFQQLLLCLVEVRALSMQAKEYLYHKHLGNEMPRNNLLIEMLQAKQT

[16] = target: Nuclear receptor subfamily 5 group A member 2 (Homo sapiens, UniProt O00482); assay type: functional, cell-based;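 also: HEK293T cells transfected with LRH-1 and a StAR promoter luciferase reporter; potency for inhibitors that lower LRH-1 driven reporter light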
[17] = StAR promoter reporter inhibition counter-screen, dose response, counter-screen for LRH-1 inverse agonist project, cell-based, luminescence, luciferase reporter (AID 651969); assay type: functional
[18] = target: T5, Polyadenylate-binding protein 1 (Homo sapiens, UniProt P11940); assay: PABP1 MLLE–PAM2 interaction inhibitors, dose response, miRNA deadenylation inhibitor project, biochemical, fluorescence polarization, Cy5-PAM2 peptide, secondary (AID 602260); assay type: functional; conditions: read-out: IC50_Mean
T5 sequence (P11940 whole entry): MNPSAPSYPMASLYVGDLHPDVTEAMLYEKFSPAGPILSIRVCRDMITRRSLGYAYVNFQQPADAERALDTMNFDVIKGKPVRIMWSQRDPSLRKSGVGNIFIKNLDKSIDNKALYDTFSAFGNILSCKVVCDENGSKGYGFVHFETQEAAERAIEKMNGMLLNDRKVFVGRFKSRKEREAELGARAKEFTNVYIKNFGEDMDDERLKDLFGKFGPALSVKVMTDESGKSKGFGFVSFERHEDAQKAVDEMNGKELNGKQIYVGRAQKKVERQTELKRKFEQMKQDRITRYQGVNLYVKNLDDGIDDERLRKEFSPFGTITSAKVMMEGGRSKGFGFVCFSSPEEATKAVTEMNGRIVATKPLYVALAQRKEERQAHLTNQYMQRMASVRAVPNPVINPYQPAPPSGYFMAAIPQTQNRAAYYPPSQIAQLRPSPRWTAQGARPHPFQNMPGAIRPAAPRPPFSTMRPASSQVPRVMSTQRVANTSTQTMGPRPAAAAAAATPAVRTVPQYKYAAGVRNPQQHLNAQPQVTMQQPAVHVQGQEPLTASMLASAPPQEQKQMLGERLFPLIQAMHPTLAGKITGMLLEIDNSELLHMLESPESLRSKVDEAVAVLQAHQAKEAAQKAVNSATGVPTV

[19] = target: T6, Sentrin-specific protease 1 (Homo sapiens, UniProt Q9P0U3); assay: potency of human SENP1 inhibitors, dose response, biochemical, kinetic FRET (AID 651697); assay type: functional; conditions: read-out: IC50_Mean
T6 sequence (Q9P0U3 whole entry): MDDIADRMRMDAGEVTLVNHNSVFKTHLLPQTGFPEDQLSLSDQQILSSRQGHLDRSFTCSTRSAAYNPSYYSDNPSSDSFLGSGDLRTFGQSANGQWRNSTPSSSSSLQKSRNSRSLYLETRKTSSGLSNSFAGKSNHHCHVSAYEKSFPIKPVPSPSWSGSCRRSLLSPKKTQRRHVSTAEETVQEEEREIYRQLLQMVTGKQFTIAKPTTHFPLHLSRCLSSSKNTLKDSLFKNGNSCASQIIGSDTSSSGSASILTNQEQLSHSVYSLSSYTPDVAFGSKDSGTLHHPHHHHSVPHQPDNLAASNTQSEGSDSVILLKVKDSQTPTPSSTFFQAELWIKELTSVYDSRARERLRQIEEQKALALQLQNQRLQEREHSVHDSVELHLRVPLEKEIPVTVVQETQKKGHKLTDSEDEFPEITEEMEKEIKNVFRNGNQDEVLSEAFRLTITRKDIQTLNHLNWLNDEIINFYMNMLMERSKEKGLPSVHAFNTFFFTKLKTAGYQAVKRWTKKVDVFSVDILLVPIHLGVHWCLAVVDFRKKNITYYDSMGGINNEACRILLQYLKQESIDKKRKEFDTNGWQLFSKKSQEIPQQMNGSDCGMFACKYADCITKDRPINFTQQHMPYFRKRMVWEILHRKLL

[20] = target: T5, Polyadenylate-binding protein 1; assay: PABP1 MLLE–PAM2 binding inhibitor potency, dose response, biochemical, fluorescence polarization, FITC-PAM2 peptide (AID 602259); assay type: functional; conditions: read-out: IC50_Mean
[21] = target: T6, Sentrin-specific protease 1; assay: Dose response confirmation of small molecule inhibitors of the catalytic domain of the SUMO protease, SENP1 in a FRET assay.; assay type: functional; conditions: read-out: IC50_Mean
[22] = ARNT/TACC3 interaction disruptors, potency, confirmation, biochemical, AlphaScreen, cherry-picked samples (AID 651703); assay type: functional, Homo sapiens;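 also: His-tagged ARNT PAS-B domain paired with GST-TACC3 E629A dimer coactivator fragment; potency of inhibitors that break up the complex and lower AlphaScreen signal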
[23] = target: T7, Aryl hydrocarbon receptor (Homo sapiens, UniProt P35869); conditions: Potency;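 also: confirmatory quantitative high-throughput screen measuring activation of the AhR signaling pathway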
T7 sequence (P35869 whole entry): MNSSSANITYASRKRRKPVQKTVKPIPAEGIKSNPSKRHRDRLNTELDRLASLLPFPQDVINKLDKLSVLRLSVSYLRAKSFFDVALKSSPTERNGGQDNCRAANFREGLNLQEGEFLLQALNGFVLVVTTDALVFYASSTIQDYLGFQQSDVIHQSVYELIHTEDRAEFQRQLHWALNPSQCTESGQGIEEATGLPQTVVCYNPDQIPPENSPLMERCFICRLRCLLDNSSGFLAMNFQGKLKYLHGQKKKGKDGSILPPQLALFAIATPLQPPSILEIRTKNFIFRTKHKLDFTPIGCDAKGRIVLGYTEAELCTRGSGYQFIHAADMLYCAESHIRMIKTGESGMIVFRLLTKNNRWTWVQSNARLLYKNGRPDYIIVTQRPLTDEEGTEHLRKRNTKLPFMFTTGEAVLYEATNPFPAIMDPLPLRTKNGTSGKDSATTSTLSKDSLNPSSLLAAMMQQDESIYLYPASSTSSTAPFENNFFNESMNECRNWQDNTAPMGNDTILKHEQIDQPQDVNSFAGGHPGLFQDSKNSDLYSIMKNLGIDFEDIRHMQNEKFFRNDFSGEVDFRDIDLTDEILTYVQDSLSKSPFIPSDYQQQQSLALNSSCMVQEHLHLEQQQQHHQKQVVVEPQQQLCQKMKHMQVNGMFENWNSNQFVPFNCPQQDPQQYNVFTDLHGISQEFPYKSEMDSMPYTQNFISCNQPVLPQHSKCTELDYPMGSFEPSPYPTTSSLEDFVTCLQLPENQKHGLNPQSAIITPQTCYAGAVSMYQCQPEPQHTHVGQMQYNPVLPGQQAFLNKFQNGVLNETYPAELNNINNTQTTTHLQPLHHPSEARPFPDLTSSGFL

Sequence of Induced myeloid leukemia cell differentiation protein Mcl-1 (Q07820 whole entry): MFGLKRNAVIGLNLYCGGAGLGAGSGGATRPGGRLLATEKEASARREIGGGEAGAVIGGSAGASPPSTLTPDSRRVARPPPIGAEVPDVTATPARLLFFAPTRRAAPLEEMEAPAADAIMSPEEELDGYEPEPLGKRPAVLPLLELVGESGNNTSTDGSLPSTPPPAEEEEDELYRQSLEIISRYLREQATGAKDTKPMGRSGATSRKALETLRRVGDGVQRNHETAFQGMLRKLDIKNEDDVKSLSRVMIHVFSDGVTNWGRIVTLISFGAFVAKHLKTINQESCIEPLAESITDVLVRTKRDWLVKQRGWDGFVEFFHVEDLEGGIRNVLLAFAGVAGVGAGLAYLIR

Structure (SMILES): O=C(Nc1ccc(S(=O)(=O)Nc2nccs2)cc1)/C(=C/c1ccccc1Cl)NC(=O)c1ccccc1
- IC50 [1]: 2.73 µM (active)
- IC50 [2]: 22.8 µM (active)
- IC50 [3]: 6.5 µM (active)

Structure (SMILES): CCOc1ccc(CCNC(=O)CS(=O)(=O)Cc2nc(-c3ccc(OC)cc3)oc2C)cc1
- IC50 [4]: 9.1 µM (active)
- IC50 [5]: > 80 µM (inactive)
- IC50 [6]: 26.8 µM (inactive)

Structure (SMILES): Cn1c(-c2ccccc2)cnc1N
- AC50 [7]: 102 µM (active)
- AC50 (Escherichia coli): 22.7 µM (active)
- AC50 (Cytochrome P450 3A4): 28.2 µM (inconclusive)

Structure (SMILES): Nc1ncc2c(n1)CC(c1ccco1)CC2=O (stereo not given)
- IC50 [8]: 56.8 µM (inactive)
- IC50 [9]: 40.5 µM (inactive)

Structure (SMILES): CC(=O)c1ccc(N2CCN(C(=O)Cc3ccccc3)CC2)c(F)c1
- AC50 [10]: 4.97 µM (active)

Structure (SMILES): CSc1nnc(NC(=O)c2nc(S(=O)(=O)Cc3ccccc3)ncc2Cl)s1
- EC50 (Protein RecA): 4.73 µM (active)
- AC50 [11]: 1.35 µM (active)
- CC50 (Vero): 31.1 µM (active)
- IC50 [12]: 5.52 µM (active)
- AC50 [13]: 5.23 µM (active)
- IC50 (Genome polyprotein): 50.6 µM (active)
- AC50 [14]: 67.4 µM (active)
- AC50 [15]: 14.5 µM (active)

Structure (SMILES): NC(=O)C1CCN(C(=O)COc2ccc3c4c(c(=O)oc3c2)CCC4)CC1
- IC50 (Steroidogenic factor 1): 35.9 µM (inactive)
- IC50 [16]: 35.9 µM (inactive)
- IC50 [17]: 35.9 µM (inactive)

Structure (SMILES): Nc1nc(O)cc(N=Nc2ccc(O)cc2)n1
- IC50 [18]: > 66 µM (inactive)
- IC50 [19]: 11.6 µM (active)
- IC50 [20]: 43.8 µM (inactive)
- IC50 [21]: 15.4 µM (active)
- IC50 (Genome polyprotein): 26.7 µM (active)

Structure (SMILES): C/C(CC(=O)NCc1ccccc1Cl)=N/NC(=O)c1ccccn1
- AC50 [22]: 77.8 µM (active)

Structure (SMILES): CCOP(=S)(OCC)Oc1ncn(-c2ccccc2)n1 [TRIAZOPHOS]
- AC50 [23]: 11.2 µM (inconclusive)
